# Source: patent US8455537B2, “Estrogen receptor modulators and uses thereof” (University of Medicine and Dentistry of New Jersey, priority 2006, dated 2013)
# Experiments:
# ERα = target: T1, ERα (Homo sapiens, UniProt P03372); experiment: NR peptide ERα ELISA kit, percentage of ER activation; assay type: biochemical; conditions: 25 μM sample; normalized to vehicle control (DMSO) = 100%; over 100% agonist, below 100% antagonist; MCF-7 nuclear extract as ER source
# T1 construct: presence of both ER and PR in the MCF-7 nuclear extract; (kit); host or cells: MCF-7 nuclear extract
# T1 sequence (P03372 1-595): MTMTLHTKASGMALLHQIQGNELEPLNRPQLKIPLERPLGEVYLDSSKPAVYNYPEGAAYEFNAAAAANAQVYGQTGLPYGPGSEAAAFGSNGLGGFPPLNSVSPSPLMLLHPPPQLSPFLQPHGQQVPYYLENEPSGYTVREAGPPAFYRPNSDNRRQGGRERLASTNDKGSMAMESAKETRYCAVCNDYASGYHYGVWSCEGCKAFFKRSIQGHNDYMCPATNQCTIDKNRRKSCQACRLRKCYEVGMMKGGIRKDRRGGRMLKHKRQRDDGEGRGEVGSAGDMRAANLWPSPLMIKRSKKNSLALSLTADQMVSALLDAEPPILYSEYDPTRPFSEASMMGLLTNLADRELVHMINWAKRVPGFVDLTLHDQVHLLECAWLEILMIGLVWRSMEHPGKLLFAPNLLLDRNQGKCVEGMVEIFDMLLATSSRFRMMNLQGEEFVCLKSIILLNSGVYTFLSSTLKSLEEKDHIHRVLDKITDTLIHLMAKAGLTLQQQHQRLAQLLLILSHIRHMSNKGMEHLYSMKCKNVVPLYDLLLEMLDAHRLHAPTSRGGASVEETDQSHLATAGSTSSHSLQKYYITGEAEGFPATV
# From the text: Relative units of light intensity for each test compound were normalized to the vehicle control (DMSO) and then expressed in percentage of ER activation. […] The data reported here represent results of three independent determinations in duplicate. Error bars represent the standard deviation of the three determinations.
# [1] = target: T2, estrogen receptor alpha (ERα) (Homo sapiens, UniProt P03372); experiment: Gel filtration displacement assay, competitive binding with 3H-estradiol; conditions: test compound 10 μM; 25 nM 3H-estradiol; 10 ng purified full-length ERα; no cold ligand = 100%; lower = stronger binding
# T2 construct: 10 ng of purified full-length ERα (Active Motif, Carlsbad, Calif.); purchased Active Motif, Carlsbad, Calif
# T2 sequence (P03372 1-595): T1 sequence (P03372 1-595)
# Description: A gel filtration displacement assay for estrogen receptor alpha (ERα) was employed to assess competitive binding by ER antagonists among the test compounds in 10 μM. ER binding assays were conducted in duplicate in 50 mM Tris-HCl, pH7.5, 1 mM EDTA, 20% Glycerol and 1 mM DTT buffer. Radioligands that were used include [6, 7-^3H] estradiol (specific activity 44 Ci/mmol, Amersham Biosciences).
# Following 1-hour incubation, assays were terminated by filtration through Whatman GF/B filters. […] Counts were normalized to the negative controls (no cold ligand) as the percentage of bound radiolabeled-estradiol remaining after separating bound radioligand from free radioligand. The negative controls were taken as 100% bound radioligand remaining. […] Results are reported as the average values of three independent experiments in duplicate. Error bars represent standard deviation of the three determinations (FIG. 2).
SMILES,percentage of ER activation (ERα) [%],percentage of bound radiolabeled-estradiol remaining [1] [%]
"CC#C[C@]1(O)CC[C@H]2[C@@H]3CCC4=CC(=O)CCC4=C3[C@@H](c3ccc(N(C)C)cc3)C[C@@]21C [mifepristone, reference compound]",51.7,> 100
CCC(=O)C1=C(O)CCC(c2cccc(Oc3ccccc3)c2)C1=O (stereo not shown) [Compound A],53.1,65.9
C[C@]12CC[C@@H]3c4ccc(O)c(O)c4CC[C@H]3[C@@H]1CC[C@@H]2O [4-hydroxy estradiol],196.3,
O=C1c2ccccc2C(=O)N1CN(C(=O)c1ccccc1)c1ccc(O)cc1 [Compound B],69,89.8
